Experiments:
[1] = test system: TCF/LEF promoter activity in PC-3 cells; assay: TCF/LEF luciferase reporter assay (pGL3-OT/pGL3-OF); assay type: cell-based
Experimental: FIG. 28 depicts effect of CT on TCF/LEF promoter activity in PC-3 cells with various compounds added with CT. Cells were seeded into 6-well plates and transfected with the pGL3-OT luciferase/pRL-tK plasmids or pGL3-OF-luciferase/pRL-TK plasmids. The cells were then incubated in complete medium for 48 h, after which they were serum-starved for 16 h. The cells were then treated with CT and/or PMH compounds, and the cell lysates analyzed for luciferase activity. The results are expressed as relative light units (RLU) after normalization with Renilla luciferase activity. The experiment was repeated three separate times, and results expressed as means±S.E.M.
Certain hydantoin-like molecules isolated from sea sponge have been identified that could inhibit prostate cell metastasis (Shah et al., 2009; Mudit et al., 2011). Disruption of junctional complex stabilizes intracellular β-catenin, leading to its translocation in the nucleus, where it can bind to its partner LEF-1 (lymphocyte enhancer binding factor-1) to transactivate target genes. The transcription of TCF/LEF genes can be quantitated by using luciferase-based reporter plasmids, pGL3-OT and pGL3-OF, the improved version of the Topflash and Fopflash vectors (Shah et al., 2009). This assay can be used to comparatively evaluate junction disrupting activity of multiple compounds in a single assay. […] The two compounds, MRM-6 and MRM-4, derivatives of PMH whose structures are shown below, were obtained from Dr. K. A. El Sayed.

[2] = test system: prostate tumor; details: Shah et al., 2009; cited from earlier work
[3] = test system: PC-3-CTR-wt cells; assay: Matrigel in vitro invasion assay; assay type: cell-based; details: for effect on CT-induced invasion / effect on basal invasion: peptide 50 μM; for effect on CT-induced invasion: CT 50 nM; for effect on basal invasion: no CT
Experimental: Invasion experiments were conducted in Matrigel™ invasion chambers as previously described (Sabbisetti et al., 2005).
CT increases invasiveness, and even induces an invasive phenotype in non-invasive prostate cancer cells. The role of PDZ-binding motif in CT-stimulated invasion was examined. FIG. 2C depicts CTR-C PDZ-binding motif mutation and effects on cell invasion. PC-3V, PC-3 CTRwt and PC-3 CTRΔESS cells were added to upper insert of invasion chambers with or without 50 nM CT, and cells that passed through the Matrigel™ barrier were counted after 48 h. The results are expressed as mean number of invaded cells per 400× field ±SEM (n=6; *p<0.05 (PC-3V v PC-3CTR-wt); $ p<0.05 (PC-3CTR-wt v PC-3CTRΔESS); $$-p<0.05 (PC-3CTRwt+CT v PC-3CTRΔESS+CT) (one-way ANOVA and Newman-Keul's test)). Expression of CTRwt in PC-3 cells increased invasion by 2.5-fold (FIG. 2C).
(§1) As shown above, CTR binds to ZO-1 through PDZ interaction (i.e. PDZ ligand on C-tail of CTR binds to the PDZ domain of ZO-1). To attenuate this binding, ZO-1 was saturated with a small C-terminal peptide of CTR sequence containing the PDZ-binding motif. Since ZO-1 is an intracellular membrane protein, the interfering peptide was delivered inside the plasma membrane. It has been shown that trans-activating transcriptional activator (TAT) protein (86-mer polypeptide) from HIV-1 enters mammalian cells when added to the surrounding media (Frankel et al., 1988; Green et al., 1989). Certain small regions of such proteins (10-16-mers) called protein transduction domains (PTDs), also efficiently traverse biological membranes (Elliott et al., 1997). Therefore, a fusion peptide Pep 1 was synthesized of TAT-peptide sequences of HIV virus and CTR-C(N-[…]-C (SEQ ID NO:2), CTR-C sequence underlined). The first experiment was to see if Pep I binds to ZO-1 in reversible fashion. For this, amino acid Y in Pep I was labeled with ^125I, and the binding with ZO-1 analyzed in the presence/absence of unlabeled Pep I (1000×; 20 μM). PC-3CTR-ZO-1-MYC cells were first incubated with unlabeled Pep I or control peptide (20 μM) for 5 min. The cells were then incubated with ^125I-pep I or C for 25 min. The cells were then washed in IP buffer, treated with DSP, and lysed. ZO-1 IPs were obtained, fractionated on SDS-PAGE, and autoradiographed. […] Next, whether Pep I competes with CTR for ZO-1 binding was tested. For this, PC-3-CTR-wt cells were treated with CT (50 nM) and or Pep I (50 μM) for 15 min. The CTR IPs were then immunoblotted and probed for ZO-1 immunoreactivity. […] Next, the biological impact of this phenomenon was examined by testing the effect of Pep I on CTR-stimulated invasion.
The binding of ZO-1 and CTR can be attenuated by saturating ZO-1 with a small C-terminal peptide of CTR sequence containing the PDZ ligand. Since ZO-1 is an intracellular membrane protein, the interfering peptide must penetrate plasma membrane to interact with ZO-1. As discussed above, fusion peptides of small TAT peptides (12-mer) and six (Pep I) or eight amino acids (Pep II) of C-terminal of CTR were synthesized. Control peptides were TAT peptides (12-mer) containing random amino acid sequence of equivalent size (6-mer). […] Thus, these two peptides (sequences given below) could be used therapeutically to attenuate or inhibit metastasis in cancerous cells.

[4] = test system: protein kinase A (PKA); assay: PKA activity in cell lysates; assay type: cell-based; details: 100 nM of mPKI, 10 μM of H-89
Experimental: The lysates of untreated and CT-treated PC-3CTRwt and PC-3CTRΔESS cells were also used to determine CT-stimulated protein kinase A (PKA) and protein kinase C (PKC) activity (PKA and PKC assay kits, Promega, Madison, Wis.). The manufacturer's instructions were followed.
FIG. 1E depicts the effect of 50 nM CT on PKA activity in cell lysates of untreated and CT-treated PC-3 CTRwt and PC-3 CTRΔESS cells that were incubated with PKA substrate peptide and ^32P-ATP, and also treated with an activator of PKA, forskolin (FSK). FIG. 1F depicts the effect of 50 nM CT on PKC activity in lysates of untreated and CT-treated PC-3 CTRwt and PC-3 CTRΔESS cells that were incubated with PKC substrate peptide and ^32P-ATP, and also treated with an activator of PKC, phorbol 12-myristate 13-acetate (PMA).
To test whether specific PKA inhibitors abrogate CT-induced TJ disassembly, two specific, well-characterized PKA inhibitors, mPKI and H-89, were used. PC-3CTRwt cells were treated with CT (50 nM for 30 min) in the presence of mPKI (100 nM) or H-89 (10 μM). Either of these inhibitors was added 15 min prior to the addition of CT. […] FIG. 16A depicts photo micrographs of PC3-CTRwt cells, CT-stimulated in the presence and absence of mPKI. […]

[5] = test system: CTR-ZO-1 interaction; assay: CTR-ZO-1 co-immunoprecipitation; assay type: cell-based; details: Pep I 50 μM, with or without CT 50 nM, PC-3-CTR-wt cells
Experimental: Serum-starved PC-31-V, PC-31-CTRwt or PC-31-CTRΔESS cells (2×10^6 per 100 mm dish) were stimulated with or without 50 nM CT for 3 min, washed, and lysed in the IP buffer as previously described (von Zastrow et al., 1994). CTR in normalized lysate proteins was immunoprecipitated with anti-FLAG EZ-view beads (Sigma Chemical Co., St. Louis, Mo.), and eluted with FLAG peptide (600 μg/ml in PBS). CTR immunoprecipitates were processed for ZO-1 immunoblotting. To control for protein loading and transfer, the blots were stripped and reprobed with immunoprecipitating antibody.
PC-31 cells stably expressing either FLAG-CTRwt or FLAGCTRΔESS were treated with or without CT for 3 min. The analysis of FLAG-CTR IPs confirmed that only FLAG-CTRwt, but not FLAG-CTRΔESS, co-precipitated ZO-1 (FIG. 3B). […] The effect of multiple CT concentrations on CTR-ZO-1 co-precipitation was tested in PC-3 cells. […] However, co-precipitation of ZO-1 by CTRwt was strong in PC-3 cells stimulated with 10 nM CT, and was even stronger in the cells receiving 100 nM CT.
as §1

[6] = molecular target: T1, ZO-1 (Homo sapiens, UniProt Q07157); assay: 125I-Pep I binding to ZO-1 (ZO-1 immunoprecipitation, autoradiography)
T1 construct: expressed in transfected cells; host or cells: PC-3CTR-ZO-1-MYC cells
Experimental: The cells were then treated with ^125I-TAT-pepI or TAT-C for 25 min. The cell lysates were then immunoprecipitated with Anti-ZO-1 serum, the immunoprecipitates were washed, fractionated on SDS-gel, and then immunoblotted for ZO-1 and autoradiographed.
As shown above, CTR binds to ZO-1 through PDZ interaction (i.e. PDZ ligand on C-tail of CTR binds to the PDZ domain of ZO-1). To attenuate this binding, ZO-1 was saturated with a small C-terminal peptide of CTR sequence containing the PDZ-binding motif. Since ZO-1 is an intracellular membrane protein, the interfering peptide was delivered inside the plasma membrane. It has been shown that trans-activating transcriptional activator (TAT) protein (86-mer polypeptide) from HIV-1 enters mammalian cells when added to the surrounding media (Frankel et al., 1988; Green et al., 1989). Certain small regions of such proteins (10-16-mers) called protein transduction domains (PTDs), also efficiently traverse biological membranes (Elliott et al., 1997). Therefore, a fusion peptide Pep 1 was synthesized of TAT-peptide sequences of HIV virus and CTR-C(N-[…]-C (SEQ ID NO:2), CTR-C sequence underlined). The first experiment was to see if Pep I binds to ZO-1 in reversible fashion. For this, amino acid Y in Pep I was labeled with ^125I, and the binding with ZO-1 analyzed in the presence/absence of unlabeled Pep I (1000×; 20 μM). […]

T1 sequence (Q07157 whole entry): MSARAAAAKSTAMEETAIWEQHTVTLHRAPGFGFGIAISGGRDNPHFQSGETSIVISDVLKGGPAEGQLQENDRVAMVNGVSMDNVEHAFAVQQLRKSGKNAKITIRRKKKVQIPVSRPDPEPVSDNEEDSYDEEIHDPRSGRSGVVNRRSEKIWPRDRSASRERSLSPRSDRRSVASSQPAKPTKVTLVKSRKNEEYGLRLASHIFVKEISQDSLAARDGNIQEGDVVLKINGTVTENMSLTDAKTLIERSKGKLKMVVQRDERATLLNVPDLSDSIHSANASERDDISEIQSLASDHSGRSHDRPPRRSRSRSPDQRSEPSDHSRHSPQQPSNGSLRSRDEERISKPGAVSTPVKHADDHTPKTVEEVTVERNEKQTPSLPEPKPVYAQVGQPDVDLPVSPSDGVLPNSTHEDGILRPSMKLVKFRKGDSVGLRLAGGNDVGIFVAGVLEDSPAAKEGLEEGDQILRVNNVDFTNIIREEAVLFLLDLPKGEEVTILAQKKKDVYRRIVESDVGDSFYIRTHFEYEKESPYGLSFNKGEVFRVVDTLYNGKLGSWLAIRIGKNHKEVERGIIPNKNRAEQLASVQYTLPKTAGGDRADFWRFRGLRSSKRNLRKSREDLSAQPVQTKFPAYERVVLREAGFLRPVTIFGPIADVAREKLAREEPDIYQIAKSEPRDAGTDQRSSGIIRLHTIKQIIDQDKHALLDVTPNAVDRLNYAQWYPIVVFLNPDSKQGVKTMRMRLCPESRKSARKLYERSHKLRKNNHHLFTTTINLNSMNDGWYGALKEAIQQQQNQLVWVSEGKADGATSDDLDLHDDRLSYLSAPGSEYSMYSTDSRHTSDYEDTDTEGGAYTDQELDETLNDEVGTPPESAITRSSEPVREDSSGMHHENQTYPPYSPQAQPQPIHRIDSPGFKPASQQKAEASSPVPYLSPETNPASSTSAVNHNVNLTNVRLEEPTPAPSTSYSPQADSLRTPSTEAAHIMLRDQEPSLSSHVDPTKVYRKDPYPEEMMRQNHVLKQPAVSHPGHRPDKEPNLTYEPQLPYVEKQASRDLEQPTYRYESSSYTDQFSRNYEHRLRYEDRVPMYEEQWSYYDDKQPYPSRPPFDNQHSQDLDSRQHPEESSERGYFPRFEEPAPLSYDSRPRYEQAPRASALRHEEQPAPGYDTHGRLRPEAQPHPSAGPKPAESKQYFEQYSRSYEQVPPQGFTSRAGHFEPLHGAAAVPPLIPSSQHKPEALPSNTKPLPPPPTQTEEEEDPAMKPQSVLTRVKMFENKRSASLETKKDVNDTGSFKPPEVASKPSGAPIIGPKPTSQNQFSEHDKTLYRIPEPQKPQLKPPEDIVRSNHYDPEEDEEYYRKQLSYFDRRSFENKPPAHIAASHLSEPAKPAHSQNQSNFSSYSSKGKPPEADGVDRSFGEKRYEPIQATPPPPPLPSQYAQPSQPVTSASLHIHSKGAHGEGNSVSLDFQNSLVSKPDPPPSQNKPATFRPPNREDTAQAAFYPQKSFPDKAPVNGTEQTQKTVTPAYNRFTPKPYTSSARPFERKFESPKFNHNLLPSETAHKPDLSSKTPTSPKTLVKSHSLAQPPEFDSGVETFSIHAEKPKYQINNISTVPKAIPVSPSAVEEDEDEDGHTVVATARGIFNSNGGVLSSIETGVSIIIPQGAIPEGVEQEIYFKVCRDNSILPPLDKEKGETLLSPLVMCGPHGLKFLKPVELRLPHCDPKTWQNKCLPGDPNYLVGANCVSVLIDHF

**Q.** Which “effect on CT-stimulated luciferase activity” value ([1]; with 50 nM CT) does the source give for `O=C1NC(=O)/C(=C/c2ccccc2)N1` [PMH, phenyl-methylene hydrantoin] here?
**A.** decreased it remarkably

**Q.** What about the “cell-cell adhesion, prostate tumor growth and metastasis” value [2] of the same molecule?
**A.** enhance cell-cell adhesion and attenuate prostate tumor growth and metastasis

**Q.** Which results are given for N-IIEQESSAYGRKKRRQRRR-C [Pep II]?
**A.** effect on CT-induced invasion [3]: significantly attenuated; effect on CT-induced invasion ([3]; listed as pepII): attenuate; effect on basal invasion [3]: did not significantly affect

**Q.** With `Nc1ccc(/C=C2\NC(=O)NC2=O)c(Cl)c1` [MRM-4, (Z)-5-(4-amino-2-chlorobenzylidene)imidazolidine-2,4-dione] as the molecule, how does the “potency relative to PMH and S-PMH in blocking CTR-ZO-1 interaction-mediated TCF/LEF activity” value [1] read?
**A.** more potent

**Q.** What about the “potency relative to PMH in inhibiting CT action” value ([1]; with 50 nM CT) of the same molecule?
**A.** significantly more potent than PMH

**Q.** What does the source list for `O=C1NC(=O)/C(=C/c2ccc(/C=C3/NC(=O)NC3=O)cc2)N1` [MRM-6, (5Z,5′E)-5,5′-(1,4-phenylenebis(methan-1-yl-1-ylidene))diimidazolidine-2,4-dione]?
**A.** potency relative to PMH and S-PMH in blocking CTR-ZO-1 interaction-mediated TCF/LEF activity [1]: more potent; potency relative to PMH in inhibiting CT action ([1]; with 50 nM CT): significantly more potent than PMH

**Q.** Which “cell-cell adhesion, prostate tumor growth and metastasis” value [2] does the source give for `CCSC1=N/C(=C\c2ccccc2)C(=O)N1` [S-PMH] here?
**A.** enhance cell-cell adhesion and attenuate prostate tumor growth and metastasis

**Q.** Which “effect on CT-stimulated PKA activity” value [4] does the source give for `O=S(=O)(NCCNC/C=C/c1ccc(Br)cc1)c1cccc2cnccc12` [Pep H-89] here?
**A.** completely abolished

**Q.** Which results are given for N-EQESSAAYGRKKRRQRRR-C [Pep I]?
**A.** effect on CTR-ZO-1 co-precipitation [5]: markedly diminished; binding to ZO-1 (co-IP of 125I-labeled peptide) ([6]; PC-3CTR-ZO-1-MYC cells, 25 min): bound to ZO-1; binding of 125I-Pep I to ZO-1 in the presence of unlabeled Pep I ([6]; unlabeled Pep I 1000×, 20 μM): almost abolished; relative potency as antagonist of CT-induced invasion ([3]; Pep I versus Pep II, 50 μM): the more potent antagonist; effect on CT-induced invasion [3]: significantly attenuated; effect on CT-induced invasion ([3]; listed as TAT-pepI): attenuate; effect on basal invasion [3]: neither the control peptide nor Pep I (50 μM) significantly affected; effect on basal invasion ([3]; listed as PepI): did not significantly affect
